In general, Ki refers to a measure of affinity in units of concentration, obtained from inhibition or displacement.

The assay deals with T1, DLK (Homo sapiens, UniProt Q12852).
T1 sequence (Q12852 1-520): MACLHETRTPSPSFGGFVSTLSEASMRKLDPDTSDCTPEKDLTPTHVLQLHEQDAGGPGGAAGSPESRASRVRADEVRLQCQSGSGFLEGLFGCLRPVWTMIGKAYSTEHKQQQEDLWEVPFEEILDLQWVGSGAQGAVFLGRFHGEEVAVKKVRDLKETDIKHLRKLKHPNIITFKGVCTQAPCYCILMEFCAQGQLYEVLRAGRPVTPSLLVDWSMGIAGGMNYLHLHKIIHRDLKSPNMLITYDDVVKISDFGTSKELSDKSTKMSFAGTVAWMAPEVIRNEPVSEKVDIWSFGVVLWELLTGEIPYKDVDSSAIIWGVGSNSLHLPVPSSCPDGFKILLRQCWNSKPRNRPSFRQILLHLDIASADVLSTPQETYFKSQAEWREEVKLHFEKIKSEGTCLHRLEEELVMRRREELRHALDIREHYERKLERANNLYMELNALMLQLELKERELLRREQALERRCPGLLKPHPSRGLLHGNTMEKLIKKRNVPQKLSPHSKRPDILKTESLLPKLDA
Particulars: read-out: DLK (Ki) μM; TR-FRET; 5 nM GST-tagged DLK (catalytic domain aa 1-520), 40 nM HIS-MKK4 K131M substrate, 30 μM ATP, 60 minutes.
In the case of `COCCN1C[C@@H]2[C@H](C1)[C@H]2c1cc(-c2cnc(N)c(Cl)c2)nn1CC1CC1` [Compound 123, 3-chloro-5-(1-(cyclopropylmethyl)-5-((1R,5S,6r)-3-(2-methoxyethyl)-3-aza-bicyclo[3.1.0]hexan-6-yl)-1H-pyra-zol-3-yl)pyridin-2-amine], the inhibition constant Ki came to 0.027 µM. Take `CC(C)n1nc(-c2cnc(N)c(C(F)(F)F)c2)cc1C1CN(C2COC2)C1` [Compound 60, 5-(1-isopropyl-5-(1-(oxetan-3-yl)azetidin-3-yl)-1H-pyrazol-3-yl)-3-(trifluoromethyl)pyridin-2-amine]: the Ki was found to be 0.027 µM.

As to `FC(F)(F)c1c[nH]c2ncc(-c3cc(C4CN(C5COC5)C4)n(C4CCOC4)n3)cc12` (stereo not shown) [Compound 55, 5-(5-(1-(oxetan-3-yl)azetidin-3-yl)-1-(tetrahydrofuran-3-yl)-1H-pyrazol-3-yl)-3-(trifluoromethyl)-1H-pyrrolo[2,3-b]pyridine], the Ki worked out at 0.019 µM.

Take `COCC(C)N1C[C@@H]2[C@H](C1)[C@H]2c1cc(-c2cnc(N)c(C(F)(F)F)c2)nn1C(C)C` (stereo partly drawn) [Compound 129, 5-(1-isopropyl-5-((1R,5S,6r)-3-(1-meth-oxypropan-2-yl)-3-azabicyclo[3.1.0]hexan-6-yl)-1H-pyrazol-3-yl)-3-(trifluoromethyl)pyridin-2-amine]: the Ki came to 0.0013 µM. In the case of `CC(C)Oc1cc(-c2cc(C3CCN(C4COC4)CC3)n(C3CCC(F)(F)C3)n2)cnc1N` (stereo not shown) [Compound 86, 5-(1-(3,3-difluorocyclopentyl)-5-(1-(oxetan-3-yl)piperidin-4-yl)-1H-pyra-zol-3-yl)-3-isopropoxypyridin-2-amine] it was 0.91 µM.

For the compound `CN1CCC(c2cc(-c3cnc(N)c(Cl)c3)nn2C2CC(F)(F)C2)CC1=O` (stereo not shown) [Compound 43, 4-(3-(6-amino-5-chloropyridin-3-yl)-1-(3,3-difluorocyclobutyl)-1H-pyra-zol-5-yl)-1-methylpiperidin-2-one], the Ki is 0.06 µM. In the case of `CC(C)n1nc(-c2cnc3[nH]cc(C(F)(F)F)c3c2)cc1C1CCN(C2COC2)CC1` [Compound 70, 5-(1-isopropyl-5-(1-(oxetan-3-yl)pipe-ridin-4-yl)-1H-pyrazol-3-yl)-3-(tri-fluoromethyl)-1H-pyrrolo[2,3-b]pyri-dine], the Ki was 0.0023 µM. In the case of `CC(CC#N)N1C[C@@H]2[C@H](C1)[C@H]2c1cc(-c2cnc(N)c(C(F)(F)F)c2)nn1C(C)C` (stereo partly drawn) [Compound 131, 3-((1R,5S,6r)-6-(3-(6-amino-5-(trifluoro-methyl)pyridin-3-yl)-1-isopropyl-1H-pyrazol-5-yl)-3-azabicyclo[3.1.0]hexan-3-yl)butanenitrile] it was 0.0044 µM. The value for `Nc1ncc(-c2cc([C@H]3[C@@H]4CN(C5COC5)C[C@@H]43)n(C3CCCC3)n2)cc1Cl` [Compound 136, 3-chloro-5-(1-cyclopentyl-5-((1R,5S,6r)-3-(oxetan-3-yl)-3-azabicyclo [3.1.0]hexan-6-yl)-1H-pyrazol-3-yl) pyridin-2-amine] was 0.024 µM; that for `CC(C)n1nc(-c2cnc3[nH]cc(F)c3c2)cc1C1CCN(C2COC2)CC1` [Compound 75, 3-fluoro-5-(1-isopropyl-5-(1-(oxetan-3-yl)piperidin-4-yl)-1H-pyrazol-3-yl)-1H-pyrrolo[2,3-b]pyridine] was 0.096 µM. In the case of `FC1(F)CC(n2nc(-c3cnc4[nH]cc(C(F)(F)F)c4c3)cc2C2CCOCC2)C1` [Compound 38, 5-(1-(3,3-difluroocyclobutyl)-5-(tetra-hydro-2H-pyran-4-yl)-1H-pyrazol-3-yl)-3-(trifluoromethyl)-1H-pyrrolo [2,3-b]pyridine] it was 0.058 µM; in that of `Nc1ncc(-c2cc([C@H]3[C@@H]4CN(C5COC5)C[C@@H]43)n(C3CCC3)n2)cc1C1CC1` [Compound 153, 5-(1-cyclobutyl-5-((1R,5S,6r)-3-(oxe-tan-3-yl)-3-azabicyclo[3.1.0]hexan-6-yl)-1H-pyrazol-3-yl)-3-cyclopropyl-pyridin-2-amine], 0.011 µM; in that of `CC(C)n1nc(-c2cnc(N)c(C(F)(F)F)c2)cc1C1CCN(CC#N)CC1` [Compound 52, 2-(4-(3-(6-amino-5-(trifluoromethyl)pyridin-3-yl)-1-isopropyl-1H-pyrazol-5-yl)piperidin-1-yl)acetonitrile], 0.056 µM. For `CC(C)Oc1cc(-c2cc(C3CCN(C4COC4)CC3)n(C(C)C)n2)cnc1N` [Compound 84, 3-isopropoxy-5-(1-isopropyl-5-(1-(oxe-tan-3-yl)piperidin-4-yl)-1H-pyrazol-3-yl)pyridin-2-amine], the Ki worked out at 0.26 µM. The value for `CC(=O)N1CC(c2cc(-c3cnc4[nH]cc(C(F)(F)F)c4c3)nn2CC2CC2)C1` [Compound 8, 1-(3-(1-(cyclopropylmethyl)-3-(3-(trifluoromethyl)-1H-pyrrolo[2,3-b]pyridin-5-yl)-1H-pyrazol-5-yl)azetidin-1-yl)ethanone] was 0.01 µM; that for `CC(C)n1nc(-c2cnc(N)c(C(F)(F)F)c2)cc1[C@H]1[C@@H]2CN(S(C)(=O)=O)C[C@@H]21` [Compound 108, 5-(1-isopropyl-5-((1R,5S,6r)-3-(meth-ylsulfonyl)-3-azabicyclo[3.1.0]hex-an-6-yl)-1H-pyrazol-3-yl)-3-(trifluoro-methyl)pyridin-2-amine] was 0.0049 µM. The value for `CC(C)n1nc(-c2cnc3[nH]cc(C(F)(F)F)c3c2)cc1C1CCN(C2CCC2)CC1` [Compound 101, 5-(5-(1-cyclobutylpiperidin-4-yl)-1-iso-propyl-1H-pyrazol-3-yl)-3-(trifluoro-methyl)-1H-pyrrolo[2,3-b]pyridine] was 0.001 µM. `CC(C)(C)n1nc(-c2cnc(N)c(C(F)(F)F)c2)cc1[C@H]1[C@@H]2CN(C3COC3)C[C@@H]21` [Compound 167, 5-(1-(tert-butyl)-5-((1R,5S,6r)-3-(oxe-tan-3-yl)-3-azabicyclo[3.1.0]hexan-6-yl)-1H-pyrazol-3-yl)-3-(trifluorometh-yl)pyridin-2-amine]: the inhibition constant Ki was 0.027 µM.

As to `Cc1c[nH]c2ncc(-c3cc(C4CCN(C5COC5)CC4)n(C(C)C)n3)cc12` [Compound 69, 5-(1-isopropyl-5-(1-(oxetan-3-yl)pipe-ridin-4-yl)-1H-pyrazol-3-yl)-3-meth-yl-1H-pyrrolo[2,3-b]pyridine], the Ki was determined as 0.0037 µM. In the case of `Nc1ncc(-c2cc([C@H]3[C@@H]4CN(C5COC5)C[C@@H]43)n(CC3CC3)n2)cc1Cl` [Compound 154, 3-chloro-5-(1-(cyclopropylmethyl)-5-((1R,5S,6r)-3-(oxetan-3-yl)-3-azabicyclo[3.1.0]hexan-6-yl)-1H-pyrazol-3-yl)pyridin-2-amine] it was 0.025 µM; in that of `COCCN1C[C@@H]2[C@H](C1)[C@H]2c1cc(-c2cnc(N)c(OC(F)(F)F)c2)nn1C(C)C` [Compound 125, 5-(1-isopropyl-5-((1R,5S,6r)-3-(2-meth-oxyethyl)-3-azabicyclo[3.1.0]hex-an-6-yl)-1H-pyrazol-3-yl)-3-(trifluoro-methoxy)pyridin-2-amine], 0.0058 µM.

`Nc1ncc(-c2cc([C@H]3[C@@H]4CN(C5COC5)C[C@@H]43)n(C3CCCC3)n2)cc1OC(F)F` [Compound 137, 5-(1-cyclopentyl-5-((1R,5S,6r)-3-(oxe-tan-3-yl)-3-azabicyclo[3.1.0]hexan-6-yl)-1H-pyrazol-3-yl)-3-(difluoro-methoxy)pyridin-2-amine]: the Ki is 0.0074 µM.

(Values after patent US10028942B2 (priority 2013, dated 2018).)
